System: murine dermal fibroblasts
Assay: RNA-Seq of newborn murine dermal fibroblasts
Assay type: cell-based, mouse
Details: 10^−7 M, 24 h
Protocol: All animal studies followed guidelines outlined by the NIH Guide for the Care and Use of Laboratory Animals and protocols were approved by the Institutional Animal Care and Use Committee at the NIEHS or the UAB. […] Skin samples from newborn C57BL/6 mice were collected at the NIEHS. Dermal fibroblasts were isolated from the skin of newborn mice, 1–2 day old. Briefly, we followed the protocols described previously. The skin was washed in PBS, cut into smaller pieces and incubated in 2.4 U/ml of dispase II (Roche) overnight at 4 °C. The dermis was separated from the epidermis and incubated in 0.1% collagenase (Roche) at 4 °C overnight. […] Single cell suspension was prepared by pipetting and draining through a cell strainer. After centrifugation, cell pellets were suspended in DMEM medium containing 10% charcoal-stripped fetal bovine serum (cFBS), mouse fibroblasts growth factor (FGF) and 1% antibiotic, and inoculated into tissue culture dishes (Midwest Scientific, TPP). Cells, in early passages, from different mice were pooled together to provide representative samples for experiments. Fibroblasts were cultured in Petri dishes (10 cm in diameter) in DMEM and 10% cFBS and triplicate semi-confluent cultures were treated as described.
Triplicate cultures of murine fibroblasts were used for RNA isolation (RNAeasy Micro kit, Qiagen), the RNA samples were combined for each condition and at least 200 ng of RNA for each sample was used to create libraries for RNA sequencing by BGI Americas Corporation Service (Cambridge, MA)[67]. Quality of RNA and its concentration were determined using Agilent 2100.
The raw sequence FASTQ files were aligned to Gencode’s GRCm38 p4 Release M11 genome using STAR version 2.5.4b (parameters used: –outReadsUnmapped Fastx; –outSAMtype BAM SortedByCoordinate; –outSAMattributes All; –outFilterIntronMotifs RemoveNoncanonicalUnannotated)[69]. The abundance of transcripts was calculated from the alignments using Cufflinks version 2.2.1 (parameters used: –G; –L; –library-type fr-firststrand). Samples were merged using default parameters with Cuffmerge[70],[71]. The differential expression was calculated using Cuffdiff’s default parameters. The raw data have been deposited at the NCBI GEO (GSE145818).

Structure (SMILES): CC(C)CCC[C@](C)(O)[C@H]1CC[C@H]2[C@@H]3CC=C4C[C@@H](O)CC[C@]4(C)[C@H]3CC[C@@]21C [20(OH)C, 20-hydroxycholesterol, reference compound]
- Adh7 expression level: 0.7754
- Adh7 log2(fold_change) vs control: 1.595
- Aqp11 expression level: 0.8073
- Aqp11 log2(fold_change) vs control: 1.853
- Arid3b expression level: 0.9108
- Arid3b log2(fold_change) vs control: -1.9
- Bicd1 expression level: 0.39
- Bicd1 log2(fold_change) vs control: -2.453
- Btc expression level: 1.112
- Btc log2(fold_change) vs control: 2.1992
- Car9 expression level: 1.738
- Car9 log2(fold_change) vs control: -2.435
- Cbs expression level: 0.5333
- Cbs log2(fold_change) vs control: -1.867
- Ccl4 expression level: 0.1695
- Ccl4 log2(fold_change) vs control: -2.322
- Cd68 expression level: 2.992
- Cd68 log2(fold_change) vs control: 1.391
- Cd200 expression level: 0.446
- Cd200 log2(fold_change) vs control: -1.664
- Cherp expression level: 31.8463
- Cherp log2(fold_change) vs control: -2.536
- Clec2g expression level: 0
- Clec2g log2(fold_change) vs control: -inf
- Cnnm4 expression level: 3.864
- Cnnm4 log2(fold_change) vs control: -3.699
- Cox15 expression level: 14.0674
- Cox15 log2(fold_change) vs control: 1.269
- Cpa2 expression level: 0.3139
- Cpa2 log2(fold_change) vs control: -2.322
- Ctrl expression level: 0.4557
- Ctrl log2(fold_change) vs control: -1.16
- Dcun1d1 expression level: 3.938
- Dcun1d1 log2(fold_change) vs control: -1.746
- Defb42 expression level: 0.3618
- Defb42 log2(fold_change) vs control: -1.335
- Dtx1 expression level: 0.6172
- Dtx1 log2(fold_change) vs control: -1.429
- Ehf expression level: 0.3171
- Ehf log2(fold_change) vs control: -1.391
- Ercc2 expression level: 15.1049
- Ercc2 log2(fold_change) vs control: -3.489
- Erh expression level: 1.52
- Erh log2(fold_change) vs control: -2.047
- Fmnl1 expression level: 0.0589
- Fmnl1 log2(fold_change) vs control: -3.9854
- Gys2 expression level: 0
- Gys2 log2(fold_change) vs control: -inf
- Hist1h2ab expression level: 1.148
- Hist1h2ab log2(fold_change) vs control: 2
- Hist1h2bg expression level: 0.5658
- Hist1h2bg log2(fold_change) vs control: -2
- Hist1h2bh expression level: 0
- Hist1h2bh log2(fold_change) vs control: -inf
- Hist1h4c expression level: 0.4039
- Hist1h4c log2(fold_change) vs control: -1
- Isl1 expression level: 0.3429
- Isl1 log2(fold_change) vs control: -1.227
- Krt19 expression level: 12.2793
- Krt19 log2(fold_change) vs control: 1.279
- Larp1b expression level: 3.613
- Larp1b log2(fold_change) vs control: -2.853
- Lhx6 expression level: 2.203
- Lhx6 log2(fold_change) vs control: -2.404
- Lsm5 expression level: 0.8846
- Lsm5 log2(fold_change) vs control: -1.59
- M1ap expression level: 2.484
- M1ap log2(fold_change) vs control: 2.0059
- Med9os expression level: 0.3191
- Med9os log2(fold_change) vs control: -2.7
- Nckipsd expression level: 8.765
- Nckipsd log2(fold_change) vs control: 1.073
- Nr3c2 expression level: 0.1285
- Nr3c2 log2(fold_change) vs control: -3.098
- Nr6a1 expression level: 0.3735
- Nr6a1 log2(fold_change) vs control: -2.304
- Ntrk3 expression level: 0.3696
- Ntrk3 log2(fold_change) vs control: -2.33
- Parvg expression level: 0.09605
- Parvg log2(fold_change) vs control: -3.946
- Pde4dip expression level: 20.5427
- Pde4dip log2(fold_change) vs control: -7.578
- Psd4 expression level: 0.1792
- Psd4 log2(fold_change) vs control: -3.129
- Ptpa expression level: 149.828
- Ptpa log2(fold_change) vs control: 1.1778
- Ptpn6 expression level: 1.723
- Ptpn6 log2(fold_change) vs control: -2.798
- Rnu3a expression level: 0
- Rnu3a log2(fold_change) vs control: -inf
- Rpph1 expression level: 0.6576
- Rpph1 log2(fold_change) vs control: -1
- Rsad1 expression level: 1.413
- Rsad1 log2(fold_change) vs control: -1.15
- Saa1 expression level: 0.1908
- Saa1 log2(fold_change) vs control: -2.322
- Samd12 expression level: 0.5476
- Samd12 log2(fold_change) vs control: -2.717
- Scn8a expression level: 0.2978
- Scn8a log2(fold_change) vs control: -1.43
- Sgca expression level: 0.3806
- Sgca log2(fold_change) vs control: -1.697
- Slc15a4 expression level: 13.0176
- Slc15a4 log2(fold_change) vs control: -2.132
- Slc16a5 expression level: 0.4564
- Slc16a5 log2(fold_change) vs control: -1.015
- Snhg9 expression level: 7.471
- Snhg9 log2(fold_change) vs control: -1.322
- St7 expression level: 21.7063
- St7 log2(fold_change) vs control: -1.667
- Stmn1 expression level: 6.2905
- Stmn1 log2(fold_change) vs control: 2.02
- Susd1 expression level: 2.158
- Susd1 log2(fold_change) vs control: 1.637
- Syt8 expression level: 0.2562
- Syt8 log2(fold_change) vs control: -3.638
- Syt12 expression level: 1.318
- Syt12 log2(fold_change) vs control: -1.636
- Tldc2 expression level: 0
- Tldc2 log2(fold_change) vs control: -inf
- Tnnc2 expression level: 0.1558
- Tnnc2 log2(fold_change) vs control: -2.361
- Unc5c expression level: 0.4963
- Unc5c log2(fold_change) vs control: -1.133
- Wdr17 expression level: 0.677
- Wdr17 log2(fold_change) vs control: -1.73
- Zbtb18 expression level: 5.289
- Zbtb18 log2(fold_change) vs control: -3.07
- Zfp618 expression level: 2.236
- Zfp618 log2(fold_change) vs control: -1.093
- number of genes downregulated, FC ≥ 2: 498
- number of genes upregulated, FC ≥ 2: 564
- number of genes solely downregulated (FC ≥ 2): 109 (10.3%)
- number of genes solely upregulated (FC ≥ 2): 291 (19.4%)
